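These data come from cells grown in 96-well plates and exposed to compound for 48 hours at five concentrations. GI50 is the concentration that inhibits growth by half. TGI: total growth inhibition.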
How the values were obtained:
Test in all cases: NCI anticancer screen, dose series, 48 h
NCI/ADR-RES ovarian = system: NCI/ADR-RES ovarian
OVCAR-3 ovarian = system: OVCAR-3 ovarian
OVCAR-4 ovarian = system: OVCAR-4 ovarian
OVCAR-5 ovarian = system: OVCAR-5 ovarian
OVCAR-8 ovarian = system: OVCAR-8 ovarian
PC-3 prostate = system: PC-3 prostate
RPMI-8226 leukemia = system: RPMI-8226 leukemia
RXF 393 renal = system: RXF 393 renal
SF-268 CNS = system: SF-268 CNS
SF-295 CNS = system: SF-295 CNS
SF-539 CNS = system: SF-539 CNS
SK-MEL-2 melanoma = system: SK-MEL-2 melanoma
SK-MEL-28 melanoma = system: SK-MEL-28 melanoma
SK-MEL-5 melanoma = system: SK-MEL-5 melanoma
SK-OV-3 ovarian = system: SK-OV-3 ovarian
SN12C renal = system: SN12C renal
SNB-19 CNS = system: SNB-19 CNS
SNB-75 CNS = system: SNB-75 CNS
SR leukemia = system: SR leukemia
SW-620 colon = system: SW-620 colon
T-47D breast = system: T-47D breast
TK-10 renal = system: TK-10 renal
U251 CNS = system: U251 CNS
UACC-257 melanoma = system: UACC-257 melanoma
UACC-62 melanoma = system: UACC-62 melanoma
UO-31 renal = system: UO-31 renal

## Nc1ccccc1C#C/C=C\C#Cc1ccccc1C#CCO
NCI/ADR-RES ovarian
  GI50: 6.17 µM
  TGI: 21.4 µM
OVCAR-3 ovarian
  GI50: 6.63 µM
  TGI: 18.5 µM
OVCAR-4 ovarian
  GI50: 14 µM
  TGI: 41.4 µM
OVCAR-5 ovarian
  GI50: 16.8 µM
  TGI: > 50 µM
OVCAR-8 ovarian
  GI50: 8.36 µM
  TGI: 27.1 µM
PC-3 prostate
  GI50: 27.5 µM
  TGI: > 50 µM
RPMI-8226 leukemia
  GI50: 24.3 µM
  TGI: > 50 µM
RXF 393 renal
  GI50: 9.25 µM
  TGI: 32.1 µM
SF-268 CNS
  GI50: 7.6 µM
  TGI: 24.3 µM
SF-295 CNS
  GI50: 6.8 µM
  TGI: 16.7 µM
SF-539 CNS
  GI50: 10.8 µM
  TGI: 27.1 µM
SK-MEL-2 melanoma
  GI50: 8.35 µM
  TGI: 24.2 µM
SK-MEL-28 melanoma
  GI50: 15.3 µM
  TGI: > 50 µM
SK-MEL-5 melanoma
  GI50: 6.1 µM
  TGI: 14.1 µM
SK-OV-3 ovarian
  GI50: 12.1 µM
  TGI: 27 µM
SN12C renal
  GI50: 9.46 µM
  TGI: 27.4 µM
SNB-19 CNS
  GI50: 23.9 µM
  TGI: > 50 µM
SNB-75 CNS
  GI50: 18 µM
  TGI: 42.1 µM
SR leukemia
  GI50: 0.405 µM
  TGI: > 50 µM
SW-620 colon
  GI50: 4.4 µM
  TGI: 35.8 µM
T-47D breast
  GI50: 16.9 µM
  TGI: > 50 µM
TK-10 renal
  GI50: 11.8 µM
  TGI: 27.5 µM
U251 CNS
  GI50: 7.41 µM
  TGI: 18.7 µM
UACC-257 melanoma
  GI50: 11.4 µM
  TGI: 45.2 µM
UACC-62 melanoma
  GI50: 5.69 µM
  TGI: 15.3 µM
UO-31 renal
  GI50: 6.69 µM
  TGI: > 50 µM
